Patent US20220202799A1, “PHARMACEUTICAL FORMULATIONS CONTAINING P2Y14 ANTAGONISTS” (priority 2019, published 2022)
Where “and” joins values, the source holds several entries; their conditions need not be identical. Equal values may be shown once. Read-outs that look alike come from different tables or passages of the source. Marks after values point to notes of the source that are not given here.

Key:
[1] = Stability of PPTN/SBECD solution on dilution into saline; assay type: physicochemical; conditions: 9 mg/mL PPTN
Procedure: The stability of PPTN in SBECD-containing solutions was analyzed at various concentrations of PPTN. A solution containing 9 mg/mL PPTN and 12% SBECD, as described above, was diluted into saline as described in Table 13.

[2] = Solubility of PPTN in various aqueous and organic solvents; assay type: physicochemical; conditions: thermodynamic from solid, PPTN HCl salt, room temperature, read-out: Solubility Estimate
Procedure: The solubility of PPTN in various aqueous and organic solvents was tested. Test media were prepared, and 5 mg/mL solid PPTN (HCl salt) was added at room temperature. If all PPTN dissolved under these conditions, additional PPTN was added to a total of 10 mg/mL. After 24 hours, undissolved material was removed, and the concentration of PPTN in the supernatant was analyzed by HPLC.

[3] = Stability of PPTN in SBECD-containing solution under various storage conditions (UHPLC-UV); assay type: physicochemical; conditions: 9 mg/mL PPTN, 12% SBECD; for [PPTN]: in mg/mL
Procedure: The stability of PPTN in SBECD-containing solutions was analyzed under various storage conditions. 20-mL glass vials containing 10 mL of a solution containing 9 mg/mL PPTN and 12% SBECD, as described above, were incubated under various conditions as described in Table 10.
Samples were analyzed by UHPLC-UV as described in Table 11.

[4] = Solubility of PPTN in SBECD-containing saline solutions; assay type: physicochemical; conditions: 9 mg/mL PPTN (HCl salt) in 12% SBECD/saline; room temperature for 28 days
Procedure: Sulfobutylether-β-cyclodextrin (SBECD) was tested for the ability to increase the solubility of PPTN in aqueous media.
A stock solution containing 12% SBECD was prepared as follows: 9 mL of saline was added to 1.21 g of SBECD in a 10 mL flask, and the mixture was sonicated for 5 minutes. Saline was then added to achieve a final volume of 10 mL. The pH of the final solution was about 7.
The solubility of PPTN in solutions containing various concentrations of SBECD was analyzed. Excess PPTN was added to saline solutions containing various concentrations of SBECD, insoluble material was removed by filtration, and the PPTN concentration in the filtered solution was analyzed.
A solution containing 9 mg/mL PPTN was prepared as follows. 4.7 mL of 12% SBECD solution, prepared as described above, was added to a 5 mL flask containing 45 mg PPTN (HCl salt), and the mixture was sonicated with heat for 50 minutes. After sonication, 12% SBECD solution to achieve a final volume of 5 mL. The warm solution appeared clear. The solution was allowed to cool to room temperature and was incubated at room temperature for 28 days.

[5] = Urine concentrations, 72-hour continuous intravenous infusion; assay type: in vivo, Sprague-Dawley rats; conditions: individual animals; for Total amount in urine: all intervals
Procedure: The safety and pharmacokinetics of PPTN (KB-1801) in rats receiving continuous intravenous injections of SBECD-containing solutions were analyzed. Three cohorts of six male and six female rats each were given continuous intravenous infusion of PPTN (KB-1801) at 10 mg/kg/day, 30 mg/kg/day or 100 mg/kg/day in a dosing solution containing PPTN at 0.25 mg/mL, 0.75 mg/mL or 2.5 mg/mL and SBECD at about 3.8%. Dosing volume was 40 mIkg/day.

[6] = Plasma pharmacokinetics after single bolus intravenous injection; assay type: in vivo; conditions: male rats; single bolus intravenous injection 0.85, 2.9 or 8.5 mg/kg; SBECD solution
Procedure: The pharmacokinetics of PPTN (KB-1801) in male rats receiving single bolus intravenous injections of SBECD-containing solutions were analyzed. Three cohorts of four rats each were given a single dose of PPTN (KB-1801) at 0.85 mg/kg, 2.9 mg/kg, or 8.5 mg/kg in 1 mL dosing volume.

[7] = Loss of PPTN due to adherence to surfaces of vessels; assay type: physicochemical; conditions: 200 ng/ml PPTN, no solubilizing agent, 24 hours
Procedure: The loss of PPTN due to adherence to surfaces of vessels was analyzed. PPTN is a hydrophobic compound that may adhere to plastics and other surfaces. To test how much PPTN is lost due to surface adhesion, an aqueous solution containing 200 ng/ml PPTN and less than 0.1% acetonitrile was incubated in the absence of solubilizing agent in various vessels for 24 hours. […]

[8] = 72-hour IV infusion 10 mg/kg/day, male rats, interval 0-4 h
[9] = 72-hour IV infusion 10 mg/kg/day, male rats, interval 4-9 h
[10] = 72-hour IV infusion 10 mg/kg/day, male rats, interval 20-24 h
[11] = 72-hour IV infusion 10 mg/kg/day, male rats, interval 44-48 h
[12] = 72-hour IV infusion 10 mg/kg/day, male rats, interval 68-72 h
[13] = 72-hour IV infusion 10 mg/kg/day, male rats, interval 92-96 h

O=C(O)c1cc(-c2ccc(C3CCNCC3)cc2)c2ccc(-c3ccc(C(F)(F)F)cc3)cc2c1 [KB-1801, 4-[4-(piperidin-4-yl)phenyl]-7-[4-(trifluoromethyl)phenyl]-2-naphthoic acid]
Result (appearance after dilution) ([1]; 12% SBECD stock diluted 3x with saline): Clear solution
Result (appearance after dilution) ([1]; 12% SBECD stock diluted 10x with saline): Clear solution
Result (appearance after dilution) ([1]; 12% SBECD stock diluted 50x with saline): Clear solution
solubility at 24 h ([2]; organic solvent or mixture, DMAc, pH 1-2): > 100 mg/mL
solubility at 24 h ([2]; organic solvent or mixture, NMP, pH 1-2): > 100 mg/mL
solubility at 24 h ([2]; organic solvent or mixture, PEG 400, pH ~2): ~25 mg/mL
solubility at 24 h ([2]; organic solvent or mixture, ethanol, pH ~2): 25 to 30 mg/mL
solubility at 24 h ([2]; organic solvent or mixture, propylene glycol, pH ~2): 40 to 50 mg/mL
solubility at 24 h ([2]; water with 1% DMAc, water w/ 1% DMAc, pH 2-3, 24 hours): 0.1 to 0.5 mg/mL
[PPTN] ([3]; 2-5° C., 1d): 8.74
[PPTN] ([3]; 2-5° C., 7d): 8.69
[PPTN] ([3]; 2-5° C., 14d): 8.98
[PPTN] ([3]; 2-5° C., 28d): 8.65
[PPTN] ([3]; 25° C., 0d): 8.72
[PPTN] ([3]; 25° C., 1d): 8.75
[PPTN] ([3]; 25° C., 7d): 8.82
[PPTN] ([3]; 25° C., 14d): 8.69
[PPTN] ([3]; 25° C., 28d): 8.71
[PPTN] ([3]; 40° C., 1d): 8.71
[PPTN] ([3]; 40° C., 7d): 8.71
[PPTN] ([3]; 40° C., 14d): 9.25**
[PPTN] ([3]; 40° C., 28d): 8.73
Degradants in UHPLC-UV trace ([3]; 40° C., 28 days): No degradants were evident
[PPTN] ([3]; 50° C., 1d): 8.78
[PPTN] ([3]; −20° C., 1d (freeze/thaw)): 9.0*
Solution appearance [4]: remained clear throughout the entire incubation
Total amount in urine ([5]; 72-hour IV infusion 10 mg/kg/day, female rats): 27.3 µg and 16.4 µg and 10.5 µg and 18.5 µg and 20.9 µg and 29.4 µg
Total amount in urine ([5]; 72-hour IV infusion 10 mg/kg/day, male rats): 54.2 µg and 46.1 µg and 62.5 µg and 83.7 µg and 74.4 µg and 60.9 µg
Amount in urine [5, 8]: 6.09 µg and 4.08 µg
Urine Conc. [5, 8]: 6.09 µg/mL and 8.16 µg/mL and 3.50 µg/mL and 7.91 µg/mL
Amount in urine [5, 9]: 11.5 µg and 5.46 µg and 8.50 µg and 6.95 µg
Urine Conc. [5, 9]: 7.64 µg/mL and 5.46 µg/mL and 17.0 µg/mL and 6.95 µg/mL and 15.8 µg/mL
Amount in urine [5, 10]: 20.7 µg and 10.0 µg and 7.20 µg and 30.9 µg
Urine Conc. [5, 10]: 20.7 µg/mL and 20.1 µg/mL and 24.0 µg/mL and 10.3 µg/mL and 19.4 µg/mL
Amount in urine [5, 11]: 2.48 µg and 14.1 µg and 22.9 µg
Urine Conc. [5, 11]: 24.8 µg/mL and 14.1 µg/mL and 45.9 µg/mL and 13.7 µg/mL
Amount in urine [5, 12]: 19.3 µg and 23.2 µg and 28.5 µg and 22.7 µg
Urine Conc. [5, 12]: 19.3 µg/mL and 23.2 µg/mL and 28.5 µg/mL and 22.7 µg/mL and 20.9 µg/mL
Amount in urine [5, 13]: 0.07 µg and 0.15 µg and 1.23 µg and 0.08 µg and 0.18 µg
Urine Conc. [5, 13]: 0.13 µg/mL and 0.10 µg/mL and 0.62 µg/mL and 0.20 µg/mL and 0.09 µg/mL and 0.07 µg/mL
Total amount in urine ([5]; 72-hour IV infusion 30 mg/kg/day, female rats): 75.7 μg and 78.9 μg (2×) and 66.9 μg and 80.5 μg and 131.7 μg
Total amount in urine ([5]; 72-hour IV infusion 30 mg/kg/day, male rats): 188.0 µg and 165.1 µg and 250.3 µg and 108.4 µg and 87.4 µg and 332.4 µg
Total amount in urine ([5]; 72-hour IV infusion 100 mg/kg/day, female rats): 251.8 µg and 191.6 µg and 78.7 µg and 198.3 µg and 151.4 µg and 353.9 µg
Total amount in urine ([5]; 72-hour IV infusion 100 mg/kg/day, male rats): 337.1 µg and 155.1 µg and 785.2 µg and 453.6 µg and 537.2 µg and 438.9 µg
PK parameters, relation to dose [6]: linearly dose-related
Pharmacokinetics of plasma PPTN, model [6]: well-described by a 2-compartment model
% recovery vs. control ([7]; Corning pipette tip): 22%
% recovery vs. standard ([7]; Corning pipette tip): 6%
% recovery vs. control ([7]; Eppendorf clear conical tube): 19%
% recovery vs. standard ([7]; Eppendorf clear conical tube): 5%
% recovery vs. control ([7]; Eppendorf orange conical tube): 25%
% recovery vs. standard ([7]; Eppendorf orange conical tube): 6%
% recovery vs. control ([7]; Versilon SE200 Tygon tubing): 8%
% recovery vs. standard ([7]; Versilon SE200 Tygon tubing): 2%
% recovery vs. control ([7]; polyetheretherketone tubing): 22%
% recovery vs. standard ([7]; polyetheretherketone tubing): 6%
